{"source": "paper PMC6892276", "about": "(European Journal of Pharmaceutical Sciences, 2019)", "key": {"[1]": {"experiment": "Metabolite profiling in human hepatocytes and HLM", "type": "in vitro ADME", "conditions": "for metabolite abundance, % of T0 parent (LC-MS response): HLM only", "experimental": "(§1) Suspended hepatocyte incubations for the purposes of metabolite identification and CLint determination were conducted as described by [Wood et al. (2018)] in round-bottomed 350 μl 96-well polypropylene plates on a PHMP thermoshaker (Grant Instruments (Cambridge) Ltd. (Shepreth, UK)) at 37 °C and 900 rpm. […] Individual wells were quenched with 120 μl of methanol containing internal standard over a time course (Table 1) and an aliquot removed for analysis.\n(§2) Prior to initiation of the reaction by the addition of NADPH (final concentration 1 mM), an aliquot was removed from each incubation and quenched in ice cold methanol containing internal standard (referred to as T0). NADPH was subsequently added to this solution for matrix matching. The remaining reaction (with addition of NADPH) was allowed to proceed for 60 min. At 0.5, 5, 15, 30 and 60 min aliquots were sampled and quenched as above. Incubations were conducted in singlicate; control incubations (substituting PBS for NADPH) were conducted simultaneously.\n(§3) For the purpose of metabolite identification, samples were analysed using a Dionex Ultimate 3000 UHPLC system coupled to a ThermoScientific Q Exactive Plus orbitrap mass spectrometer (Thermo Fisher Scientific Inc., Waltham, USA). Separation of analytes was achieved using an Acquity UPLC HSS T3 column (1.8 μm, 100 × 2.1 mm) (Waters, Elstree, UK) at a temperature of 50 °C and a binary mobile phase gradient at a flow rate of 0.4 ml/min. Initial conditions comprised 10% solvent A (0.1% formic acid in water), 90% solvent B (methanol); this was ramped to 95% A at 12 min, immediately returned to initial conditions and held for the remaining 3 min of the method. The UV absorbance of samples at 230 nm and 260 nm was monitored using a Dionex Ultimate 3000 diode array detector. Sample analysis was by electrospray atmospheric pressure ionization combined with full scan acquisition in positive ion mode over a mass range 80–1200 m/z. The capillary voltage was 3.5 kV; desolvation gas and capillary temperatures were 450 °C and 275 °C respectively; sheath, aux and sweep gas flow rates were 55, 15 and 3 respectively. Full MS/dd-MS^2 (full MS scan followed by data dependent MS/MS) and Full MS/AIF (full MS scan followed by all ion fragmentation) workflows were used in combination.\n(§4) Identification of metabolites and elucidation of their proposed structures was undertaken with the aid of the software Compound Discoverer (v2.0.0.303, Thermo Fisher Scientific Inc., Waltham, USA). RAW data files containing accurate mass data and fragmentation spectra generated in the acquisition software Chromeleon (v7.2 SR3 (7553), Thermo Fisher Scientific Inc., Waltham, USA) were input into Compound Discoverer and processed using the targeted workflow described in Fig. 1 of the Appendix. The final time point of a parallel incubation of a different compound was used as a sample blank and any chromatographic peaks identified with the same m/z and retention time as in this sample were marked as background compounds and therefore not considered as potential metabolites. The Compound Discoverer application combines accurate mass data, isotope pattern matching and predicted biotransformations based on the parent compound's structure to generate a series of expected and unexpected compounds or metabolites. These were manually filtered using a typical criteria of peak area greater than or equal to 5000 counts per sec; compound identified in samples of at least three time points and peak area ratio of compound in Tx relative to T0 greater than or equal to 2, where Tx represents any given time point. […] The fragmentation spectra of these analytes were compared to those of the parent to facilitate structural interpretation of biotransformations. […]"}, "[2]": {"experiment": "Metabolite profiling in mouse hepatocytes and MLM", "type": "in vitro ADME", "conditions": "for maximal metabolite abundance, % of T0 parent (LC-MS/MS response): mouse hepatocytes and MLM; for % total metabolite response: MLM 1 mg/ml, 1 μM; for % T0 parent response, minor metabolites: mouse, matrix not stated", "experimental": "as §1, §2, §3, §4"}, "[3]": {"experiment": "Metabolite profiling in rat hepatocytes and RLM", "type": "in vitro ADME", "experimental": "as §1, §2\n(§5) For the purpose of metabolite identification, samples were analysed using a Dionex Ultimate 3000 UHPLC system coupled to a ThermoScientific Q Exactive Plus orbitrap mass spectrometer (Thermo Fisher Scientific Inc., Waltham, USA). […] The UV absorbance of samples at 230 nm and 260 nm was monitored using a Dionex Ultimate 3000 diode array detector. […]"}, "[4]": {"target": "T1, FLT3 (Homo sapiens, UniProt P36888)", "T1 sequence (P36888 27-993)": "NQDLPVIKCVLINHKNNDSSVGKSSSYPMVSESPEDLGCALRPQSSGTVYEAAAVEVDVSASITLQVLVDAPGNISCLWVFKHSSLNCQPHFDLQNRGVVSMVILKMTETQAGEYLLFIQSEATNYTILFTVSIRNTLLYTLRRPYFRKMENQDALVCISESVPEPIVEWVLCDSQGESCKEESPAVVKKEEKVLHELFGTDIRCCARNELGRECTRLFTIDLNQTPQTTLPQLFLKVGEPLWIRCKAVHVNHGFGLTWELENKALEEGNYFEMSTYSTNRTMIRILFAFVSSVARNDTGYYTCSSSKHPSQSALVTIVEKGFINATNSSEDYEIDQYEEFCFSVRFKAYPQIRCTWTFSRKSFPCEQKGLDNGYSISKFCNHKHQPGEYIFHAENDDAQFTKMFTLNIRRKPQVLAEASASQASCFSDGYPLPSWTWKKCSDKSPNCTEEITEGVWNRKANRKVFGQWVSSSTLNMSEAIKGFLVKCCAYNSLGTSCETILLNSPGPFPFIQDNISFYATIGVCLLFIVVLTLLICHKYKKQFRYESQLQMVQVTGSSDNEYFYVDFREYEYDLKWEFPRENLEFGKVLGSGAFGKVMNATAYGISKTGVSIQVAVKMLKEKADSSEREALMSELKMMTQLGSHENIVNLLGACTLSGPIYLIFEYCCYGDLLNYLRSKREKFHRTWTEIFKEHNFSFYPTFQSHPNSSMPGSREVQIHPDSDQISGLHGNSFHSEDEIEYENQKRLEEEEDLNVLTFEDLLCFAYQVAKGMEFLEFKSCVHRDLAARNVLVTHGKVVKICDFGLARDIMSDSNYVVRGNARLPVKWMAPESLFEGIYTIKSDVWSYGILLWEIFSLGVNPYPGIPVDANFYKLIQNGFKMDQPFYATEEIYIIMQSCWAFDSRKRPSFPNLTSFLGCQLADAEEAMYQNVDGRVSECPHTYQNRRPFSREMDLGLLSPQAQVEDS", "experiment": "KINOMEscan Kd determination against FLT3", "type": "binding", "conditions": "11-point 3-fold dilution series, top concentration 5 μM", "experimental": "(§6) Kds were determined using an 11-point 3-fold compound dilution series (top concentration 5 μM) with three DMSO control points."}, "[5]": {"target": "T2, FLT3-ITD (Homo sapiens, UniProt P36888, ITD)", "T2 sequence (P36888 564-993)": "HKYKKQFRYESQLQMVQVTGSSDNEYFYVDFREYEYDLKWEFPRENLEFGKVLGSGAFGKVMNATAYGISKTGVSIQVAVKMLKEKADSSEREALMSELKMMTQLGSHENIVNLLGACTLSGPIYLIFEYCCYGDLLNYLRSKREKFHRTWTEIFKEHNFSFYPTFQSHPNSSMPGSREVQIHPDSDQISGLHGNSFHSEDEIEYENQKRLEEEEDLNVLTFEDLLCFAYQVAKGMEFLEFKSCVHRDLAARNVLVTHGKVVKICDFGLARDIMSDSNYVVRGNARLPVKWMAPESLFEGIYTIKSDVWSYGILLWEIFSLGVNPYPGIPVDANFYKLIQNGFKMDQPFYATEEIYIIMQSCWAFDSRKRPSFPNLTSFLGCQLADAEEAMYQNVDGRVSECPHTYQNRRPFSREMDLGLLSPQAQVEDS", "experiment": "KINOMEscan Kd determination against FLT3-ITD", "type": "binding", "conditions": "11-point 3-fold dilution series, top concentration 5 μM", "experimental": "as §6"}, "[6]": {"target": "T3, Aurora-A (Homo sapiens, UniProt O14965)", "T3 sequence (O14965 1-403)": "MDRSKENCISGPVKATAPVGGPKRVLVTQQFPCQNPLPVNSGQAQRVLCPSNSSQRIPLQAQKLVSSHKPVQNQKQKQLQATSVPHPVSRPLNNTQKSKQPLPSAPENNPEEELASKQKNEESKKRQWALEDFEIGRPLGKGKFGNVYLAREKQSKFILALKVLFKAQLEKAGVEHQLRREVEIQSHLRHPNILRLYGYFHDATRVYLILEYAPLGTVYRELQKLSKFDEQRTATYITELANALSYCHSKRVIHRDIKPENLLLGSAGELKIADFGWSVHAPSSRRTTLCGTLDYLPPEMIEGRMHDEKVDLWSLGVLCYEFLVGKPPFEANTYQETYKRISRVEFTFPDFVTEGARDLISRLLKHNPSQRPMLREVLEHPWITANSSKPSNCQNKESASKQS", "experiment": "KINOMEscan Kd determination against Aurora-A", "type": "binding", "conditions": "11-point 3-fold dilution series, top concentration 5 μM", "experimental": "as §6"}, "[7]": {"target": "Aurora-B (Homo sapiens, UniProt Q96GD4)", "sequence (Q96GD4 whole entry)": "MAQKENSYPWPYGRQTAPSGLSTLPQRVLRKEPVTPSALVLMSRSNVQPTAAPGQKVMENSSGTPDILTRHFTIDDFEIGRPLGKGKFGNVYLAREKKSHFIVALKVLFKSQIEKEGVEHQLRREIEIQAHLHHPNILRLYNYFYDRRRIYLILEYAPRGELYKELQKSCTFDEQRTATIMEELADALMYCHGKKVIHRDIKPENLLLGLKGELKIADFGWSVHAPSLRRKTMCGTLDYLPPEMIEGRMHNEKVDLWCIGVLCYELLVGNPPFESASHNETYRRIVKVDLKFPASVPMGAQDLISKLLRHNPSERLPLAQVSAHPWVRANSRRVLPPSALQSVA", "experiment": "KINOMEscan Kd determination against Aurora-B", "type": "binding", "conditions": "11-point 3-fold dilution series, top concentration 5 μM", "experimental": "as §6"}, "[8]": {"experiment": "Metabolite profiling in dog hepatocytes and DLM", "type": "in vitro ADME", "conditions": "dog hepatocytes and microsomes of both sexes", "experimental": "as §1, §2, §5"}}}
{"smiles": "Cc1nn(C)cc1-c1nc2c(NCCN)c(Cl)cnc2[nH]1", "note": "[Compound M7]", "values": [{"measurement": "metabolite abundance, % of T0 parent (LC-MS response)", "setting": "[1]", "value": "< 2", "unit": "%"}, {"measurement": "maximal metabolite abundance, % of T0 parent (LC-MS/MS response)", "setting": "[2]", "value": "> 10", "unit": "%"}]}
{"smiles": "Cc1nn(C)cc1-c1nc2c(NCCNCc3ccc(Cl)cc3)c(Cl)cnc2[nH]1", "note": "[Compound M4]", "values": [{"measurement": "metabolite abundance, % of parent LC-MS response at T0", "setting": "[1]; human hepatocytes and HLM", "value": "< 2", "unit": "%"}, {"measurement": "metabolite abundance, % of parent", "setting": "[3]; RLM, at most", "value": "< 2", "unit": "%"}, {"measurement": "maximal metabolite abundance, % of T0 parent (LC-MS/MS response)", "setting": "[3]; rat hepatocytes", "value": "8–10%"}]}
{"smiles": "Cc1nn(C)cc1-c1nc2c(N3CC[N+]([O-])(Cc4ccc(Cl)cc4)CC3)c(Cl)cnc2[nH]1", "note": "[Compound M2]", "values": [{"measurement": "% total metabolite response", "setting": "[1]; HLM 1 mg/ml, 1 μM, 60 min incubation", "value": 3.5, "unit": "%"}, {"measurement": "% total metabolite response", "setting": "[2]; within the first 30 min of incubation", "value": "> 25", "unit": "%"}, {"measurement": "maximal metabolite abundance, % of T0 parent (LC-MS/MS response)", "setting": "[2]", "value": "> 10", "unit": "%"}]}
{"smiles": "Cc1n[nH]cc1-c1nc2c(N3CCNCC3)c(Cl)cnc2[nH]1", "note": "[Compound M6]", "values": [{"measurement": "metabolite abundance, % of T0 parent (LC-MS response)", "setting": "[1]", "value": "< 2", "unit": "%"}, {"measurement": "% T0 parent response, minor metabolites", "setting": "[2]", "value": "< 2", "unit": "%"}]}
{"smiles": "Cc1nn(C)cc1-c1nc2c(N3CCNCC3)c(Cl)cnc2[nH]1", "note": "[Compound M1]", "values": [{"measurement": "Kd", "setting": "[4]", "value": 7.9, "unit": "nM"}, {"measurement": "Kd", "setting": "[5]", "value": 82, "unit": "nM"}, {"measurement": "Kd", "setting": "[6]", "value": 33, "unit": "nM"}, {"measurement": "Kd", "setting": "[7]", "value": 130, "unit": "nM"}, {"measurement": "metabolite abundance, % of parent LC-MS response at T0", "setting": "[1]; HLM, final sampled time point", "value": 10.6, "unit": "%"}, {"measurement": "metabolite abundance, % of parent LC-MS response at T0", "setting": "[1]; human hepatocytes and HLM", "value": "approximately 10%"}, {"measurement": "metabolite abundance, % of parent LC-MS response at T0", "setting": "[1]; human hepatocytes, final sampled time point", "value": 9.4, "unit": "%"}, {"measurement": "% total metabolite response", "setting": "[2]; peak of initial increase", "value": "up to 7%"}]}
{"smiles": "Cc1n[nH]cc1-c1nc2c(N3CCN(Cc4ccc(Cl)cc4)CC3)c(Cl)cnc2[nH]1", "note": "[Compound M3]", "values": [{"measurement": "metabolite abundance, % of parent LC-MS response at T0", "setting": "[1]; human hepatocytes and HLM", "value": "< 2", "unit": "%"}, {"measurement": "maximal metabolite abundance, % of T0 parent (LC-MS/MS response)", "setting": "[8]", "value": "> 10", "unit": "%"}, {"measurement": "% T0 parent response, minor metabolites", "setting": "[2]", "value": "< 2", "unit": "%"}]}
